According to ChEMBL document CHEMBL1201862, “PubChem BioAssay data set” (2004):
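Cells were grown in 96-well plates and exposed to each compound for 48 hours at five concentrations; endpoints were interpolated linearly between bracketing concentrations, or set to the highest concentration if not reached. Abbreviation: GI50, concentration required for 50% inhibition of growth.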 Activity calls are given as the source filed them. Rule as the data show it: active = GI50 up to about 1.1 µM and inactive = higher.

Experiments:
Experiment in all cases: NCI tumour cell line growth inhibition, 48 h
NCI-H23 = tested on: NCI-H23
LOX IMVI = tested on: LOX IMVI
UO-31 = tested on: UO-31
CCRF-CEM = tested on: CCRF-CEM
COLO 205 = tested on: COLO 205
U-251 = tested on: U-251
786-0 = tested on: 786-0
RXF 393 = tested on: RXF 393
SF-539 = tested on: SF-539
SK-MEL-5 = tested on: SK-MEL-5
SNB-19 = tested on: SNB-19
IGROV-1 = tested on: IGROV-1
SF-295 = tested on: SF-295
OVCAR-3 = tested on: OVCAR-3
K562 = tested on: K562
KM12 = tested on: KM12
DLD-1 = tested on: DLD-1
SW-620 = tested on: SW-620

Row | SMILES | GI50 (NCI-H23) | GI50 (LOX IMVI) | GI50 (UO-31) | GI50 (CCRF-CEM) | GI50 (COLO 205) | GI50 (U-251) | GI50 (786-0) | GI50 (RXF 393) | GI50 (SF-539) | GI50 (SK-MEL-5) | GI50 (SNB-19) | GI50 (IGROV-1) | GI50 (SF-295) | GI50 (OVCAR-3) | GI50 (K562) | GI50 (KM12) | GI50 (DLD-1) | GI50 (SW-620)
1 | O=c1c2cc3c(cc2c2cccc4c2n1CCC4)OCO3 | 22.4 µM (inactive) | 42.9 µM (inactive) | 22.4 µM (inactive) | 89.3 µM (inactive) | 26.3 µM (inactive) | 23.1 µM (inactive) | 27 µM (inactive) | 28.4 µM (inactive) | 30.4 µM (inactive) | 42.4 µM (inactive) | 44.7 µM (inactive) | 36.1 µM (inactive) | 33.8 µM (inactive) | 61.2 µM (inactive) | 45.8 µM (inactive) | 33.3 µM (inactive) | 26.8 µM (inactive) | 29.4 µM (inactive)
2 | C/C(=N\NC(=S)N1CCCCCC1)c1nccnc1C | < 0.01 µM (active) | < 0.01 µM (active) | – | 0.0607 µM (active) | < 0.01 µM (active) | 0.2 µM (active) | 5.14 µM (inactive) | 0.231 µM (active) | 0.242 µM (active) | 0.0292 µM (active) | – | < 0.01 µM (active) | 0.124 µM (active) | < 0.01 µM (active) | 0.055 µM (active) | 0.0887 µM (active) | 1.42 µM (inactive) | < 0.01 µM (active)
3 | CCCCCCCCCCCCCC(=O)NCC(OCC)OCC | > 100 µM (inactive) | > 100 µM (inactive) | > 100 µM (inactive) | > 100 µM (inactive) | > 100 µM (inactive) | > 100 µM (inactive) | > 100 µM (inactive) | > 100 µM (inactive) | > 100 µM (inactive) | > 100 µM (inactive) | > 100 µM (inactive) | > 100 µM (inactive) | > 100 µM (inactive) | > 100 µM (inactive) | – | > 100 µM (inactive) | > 100 µM (inactive) | > 100 µM (inactive)
4 | O=C1C=C(Nc2ccccc2C(=O)c2ccccc2)c2ccccc2C1=O | > 100 µM (inactive) | – | > 100 µM (inactive) | – | > 100 µM (inactive) | 70.8 µM (inactive) | > 100 µM (inactive) | > 100 µM (inactive) | > 100 µM (inactive) | – | > 100 µM (inactive) | > 100 µM (inactive) | > 100 µM (inactive) | 70 µM (inactive) | – | 33.3 µM (inactive) | > 100 µM (inactive) | 87.9 µM (inactive)
5 | CN1CCc2ccccc2C(C(=O)c2ccc3c(c2)OCO3)C1=O (stereo unspecified) | 96.2 µM (inactive) | > 100 µM (inactive) | 94 µM (inactive) | > 100 µM (inactive) | > 100 µM (inactive) | > 100 µM (inactive) | > 100 µM (inactive) | > 100 µM (inactive) | – | 53.3 µM (inactive) | > 100 µM (inactive) | > 100 µM (inactive) | – | > 100 µM (inactive) | > 100 µM (inactive) | > 100 µM (inactive) | > 100 µM (inactive) | > 100 µM (inactive)
6 | CCOC(=O)C(CCCNC(=O)OC(C)(C)C)N(Cc1ccc(OC)cc1OC)C(=O)CC(=O)CP(=O)(OCC)OCC (stereo unspecified) | > 100 µM (inactive) | > 100 µM (inactive) | > 100 µM (inactive) | > 100 µM (inactive) | > 100 µM (inactive) | > 100 µM (inactive) | > 100 µM (inactive) | > 100 µM (inactive) | > 100 µM (inactive) | > 100 µM (inactive) | > 100 µM (inactive) | > 100 µM (inactive) | > 100 µM (inactive) | > 100 µM (inactive) | > 100 µM (inactive) | > 100 µM (inactive) | > 100 µM (inactive) | –
7 | Cc1c(CC/C(=N\Nc2ccc([N+](=O)[O-])cc2[N+](=O)[O-])c2ccccc2)c2ccccc2n1C | > 100 µM (inactive) | > 100 µM (inactive) | > 86.9 µM (inactive) | > 44 µM (inactive) | > 100 µM (inactive) | > 100 µM (inactive) | > 100 µM (inactive) | > 46.1 µM (inactive) | > 100 µM (inactive) | > 100 µM (inactive) | > 94.4 µM (inactive) | > 100 µM (inactive) | > 100 µM (inactive) | > 100 µM (inactive) | 27.4 µM (inactive) | > 100 µM (inactive) | > 100 µM (inactive) | > 100 µM (inactive)
8 | O=C(CCc1nnc2s/c(=C\c3ccc(Cl)cc3Cl)c(=O)n12)Nc1cc(Cl)c(Cl)cc1Cl | > 10 µM (inactive) | > 10 µM (inactive) | > 10 µM (inactive) | > 10 µM (inactive) | > 10 µM (inactive) | 72.4 µM (inactive) | > 10 µM (inactive) | > 10 µM (inactive) | > 10 µM (inactive) | > 10 µM (inactive) | > 10 µM (inactive) | > 10 µM (inactive) | > 10 µM (inactive) | > 10 µM (inactive) | > 10 µM (inactive) | > 10 µM (inactive) | > 10 µM (inactive) | > 10 µM (inactive)
9 | CCOC(=O)CNC(SC)=C(C#N)C#N | > 100 µM (inactive) | > 100 µM (inactive) | 36.7 µM (inactive) | > 100 µM (inactive) | > 100 µM (inactive) | > 100 µM (inactive) | > 100 µM (inactive) | > 100 µM (inactive) | > 100 µM (inactive) | > 100 µM (inactive) | > 100 µM (inactive) | > 100 µM (inactive) | > 100 µM (inactive) | > 100 µM (inactive) | > 100 µM (inactive) | > 100 µM (inactive) | > 100 µM (inactive) | > 100 µM (inactive)
10 | CCOC(=O)NNC(=O)NC12CC3CC(CC(C3)C1)C2 | > 100 µM (inactive) | > 100 µM (inactive) | > 100 µM (inactive) | > 100 µM (inactive) | > 100 µM (inactive) | > 100 µM (inactive) | > 100 µM (inactive) | > 100 µM (inactive) | > 100 µM (inactive) | > 100 µM (inactive) | > 100 µM (inactive) | > 100 µM (inactive) | > 100 µM (inactive) | > 100 µM (inactive) | > 100 µM (inactive) | > 100 µM (inactive) | > 100 µM (inactive) | > 100 µM (inactive)
11 | CCOC(=O)C(C(=O)OCC)=c1sc(=C(C(=O)OCC)C(=O)OCC)s1 | > 100 µM (inactive) | > 100 µM (inactive) | – | > 100 µM (inactive) | > 100 µM (inactive) | – | > 100 µM (inactive) | > 100 µM (inactive) | – | > 100 µM (inactive) | – | > 100 µM (inactive) | > 100 µM (inactive) | > 100 µM (inactive) | > 100 µM (inactive) | > 100 µM (inactive) | > 100 µM (inactive) | > 100 µM (inactive)
12 | Cc1[nH]c2c(C)cccc2c1C1Cc2ccccc2N1 (stereo unspecified) | 20.3 µM (inactive) | 17.1 µM (inactive) | 22.1 µM (inactive) | 25.5 µM (inactive) | 18.2 µM (inactive) | 20 µM (inactive) | 22.3 µM (inactive) | 10.7 µM (inactive) | 17.8 µM (inactive) | 18.5 µM (inactive) | 29.1 µM (inactive) | 17.3 µM (inactive) | 19.8 µM (inactive) | 16.7 µM (inactive) | 29.2 µM (inactive) | 17.5 µM (inactive) | 28.8 µM (inactive) | 26.4 µM (inactive)
13 | CC(=O)OCc1c(O)nc2c(c1O)-c1ccccc1CC2 | 76.6 µM (inactive) | 61.4 µM (inactive) | – | 67.1 µM (inactive) | 57 µM (inactive) | > 350 µM (inactive) | 56.9 µM (inactive) | 54.6 µM (inactive) | 89.1 µM (inactive) | 76.6 µM (inactive) | > 350 µM (inactive) | 164 µM (inactive) | 74.6 µM (inactive) | 51.5 µM (inactive) | 109 µM (inactive) | 53.2 µM (inactive) | 71.9 µM (inactive) | 56.4 µM (inactive)
14 | COc1ccc(NC(=O)c2oc3cc(O)ccc3c(=O)c2C)c([N+](=O)[O-])c1 | > 100 µM (inactive) | > 100 µM (inactive) | > 100 µM (inactive) | > 100 µM (inactive) | > 100 µM (inactive) | > 100 µM (inactive) | > 100 µM (inactive) | > 100 µM (inactive) | > 100 µM (inactive) | > 100 µM (inactive) | > 100 µM (inactive) | > 100 µM (inactive) | > 100 µM (inactive) | > 100 µM (inactive) | > 100 µM (inactive) | > 100 µM (inactive) | > 100 µM (inactive) | > 100 µM (inactive)
15 | COCC1N=C(c2cc(OC)c(OC)c(OC)c2-c2cc3c(cc2C2OCCCO2)OCO3)O[C@H]1c1ccccc1 (stereo partly specified) | > 100 µM (inactive) | > 100 µM (inactive) | > 100 µM (inactive) | > 100 µM (inactive) | – | > 100 µM (inactive) | > 100 µM (inactive) | > 100 µM (inactive) | > 100 µM (inactive) | > 100 µM (inactive) | > 100 µM (inactive) | > 100 µM (inactive) | > 100 µM (inactive) | > 100 µM (inactive) | > 100 µM (inactive) | > 100 µM (inactive) | > 100 µM (inactive) | > 100 µM (inactive)
16 | COc1cc(/C=C2\CCc3ccccc3C2=O)cc(OC)c1OC | 15.7 µM (inactive) | 11.9 µM (inactive) | 16.8 µM (inactive) | 4.89 µM (inactive) | 17 µM (inactive) | 16.1 µM (inactive) | 15.7 µM (inactive) | 14.6 µM (inactive) | 16.9 µM (inactive) | 12.6 µM (inactive) | 15.8 µM (inactive) | – | 15 µM (inactive) | 15.8 µM (inactive) | 8.43 µM (inactive) | 13.6 µM (inactive) | 13.8 µM (inactive) | 16.6 µM (inactive)
